Measured values: US20120009593A1, “ANALYSIS METHOD FOR THE IN VITRO DIAGNOSIS OF BENIGN PROSTATIC HYPERPLASIA (BPH) IN DOGS BY ASSAYING CANINE PROSTATE SPECIFIC ESTERASE, AND BPH TREATMENT FOLLOW UP” (VIRBAC SA, priority 2009, published 2012)
Several values for one entry are separate records, joined by “and”; a condition that tells them apart may be missing. Equal entries are not always repeated.

Key:
dogs with signs of BPH [1] = experiment: Anti-androgen treatment follow up: serum CPSE level in treated dogs; format: in vivo, dog
Method: The CPSE concentration in the serum or plasma samples was determined by sandwich ELISA. 96-well microplates (Stripwell Costar/Corning, N.Y., USA) were coated overnight at +4° C. with monoclonal or polyclonal anti-CPSE antibodies, at a concentration of 5 μg/ml in a carbonate buffer at pH 9.6. After 4 washes, the wells were incubated for 1 hour at 37° C. with a saline phosphate buffer at pH 7.2, while adding 5% bovine serum albumin. Finally, the plates were incubated for 30 minutes at room temperature with a saline phosphate buffer at pH 7.2 to which 10% sucrose was added. Once emptied, the microplates were dried overnight under vacuum, and then packaged in the presence of a desiccant until use.
The assay of samples is carried out by dispensing […] of serum or plasma (heparinized plasma or EDTA plasma) into each of the wells. After 1 hour at 37° C., the microplate is washed. 100 μl of monoclonal or polyclonal anti-CPSE antibodies conjugated to peroxidase are dispensed. The wells are incubated for 1 hr at 37° C. and washed again. The antibodies remaining attached to the walls are developed by adding 3,3′,5,5′tetramethyl benzidine. After completion of the reaction, the absorbance is read at 450 nm.
Five dogs with signs of BPH (see inclusion criteria above) were treated with osaterone acetate (YPOZANE®, Virbac). This molecule is an anti-androgen, which acts on the prostatic parenchyma. The CPSE level was measured at days D15 and D0. The dogs were treated as recommended and were given from 0.25-0.5 mg/kg/day of osaterone acetate, for a period of 7 days. Serum was collected prior to any treatment and after 15 days. The CPSE level was measured in the different samples.
Dogs with signs of PBH were treated with osaterone acetate, as recommended by the manufacturer. The serum CPSE level in these dogs was measured before the treatment and after 15 days.

dogs with signs of BPH [2] = experiment: Anti-androgen treatment follow up: prostate size by digital rectal examination; format: in vivo, dog; conditions: all five treated dogs, after treatment

CC(=O)O[C@]1(C(C)=O)CC[C@H]2[C@@H]3C=C(Cl)C4=CC(=O)OC[C@]4(C)[C@H]3CC[C@@]21C [osaterone acetate]
change in serum CPSE level between before treatment and treatment completed (dogs with signs of BPH [1]; five dogs with signs of BPH, D0 vs D15): decrease in the serum CPSE level | CPSE (ng/ml), D + 15 (dogs with signs of BPH [1]; serum, individual Dogs 1-5 with signs of BPH, D+15, 0.25-0.5 mg/kg/day for 7 days): 15 ng/mL and 21 ng/mL and 40 ng/mL and 10 ng/mL and 36 ng/mL | CPSE (ng/ml), Visit 2 (dogs with signs of BPH [1]; serum, individual dogs C1-C5 with signs of BPH, 15 days after first sampling, 0.25-0.5 mg/kg/day for 7 days): 15 ng/mL and 21 ng/mL and 40 ng/mL and 10 ng/mL and 36 ng/mL | size of the prostate by digital rectal examination (dogs with signs of BPH [2]): return to a normal size of the prostate
